Activity calls are given as the source filed them.

Experiment [1] in a line: reduction of Shn3 3'UTR-driven luciferase in osteoblasts – cell-based, Clone20 osteoblasts, firefly luciferase, cherry-picked, dose response (AID 624132).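 Note: firefly luciferase luminescence from reporter carrying the Shn3 3'UTR in osteoblasts.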 The experiment is classed as functional.
The nature of experiment [2]: loss of viability in HepG2 cells – cell-based, CellTiter-Glo, cherry-picked, cytotoxicity control for Shn3 inhibitor project, dose response (AID 624134). It counts as functional.
Experiment [3] is described as follows: non-specific 3'UTR reporter inhibition in Clone20-Shn3RL – cell-based, Renilla luciferase, cherry-picked, counter-screen for Shn3 inhibitor project, dose response (AID 624133). The experiment is classed as functional.
Experiment [4] in a line: HEK-293T viability loss after treatment – luminescence, T-cell screen hits, cytotoxicity control for TCR NF-kB inhibitor project, dose response (AID 489026).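 Note: cells exposed to compound about 14 hours before the viability readout.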 The experiment is classed as functional, cell-based.
The target in experiment [5] is T1, Histone-lysine N-methyltransferase NSD2 (Homo sapiens, UniProt O96028).
T1 sequence (O96028 whole entry): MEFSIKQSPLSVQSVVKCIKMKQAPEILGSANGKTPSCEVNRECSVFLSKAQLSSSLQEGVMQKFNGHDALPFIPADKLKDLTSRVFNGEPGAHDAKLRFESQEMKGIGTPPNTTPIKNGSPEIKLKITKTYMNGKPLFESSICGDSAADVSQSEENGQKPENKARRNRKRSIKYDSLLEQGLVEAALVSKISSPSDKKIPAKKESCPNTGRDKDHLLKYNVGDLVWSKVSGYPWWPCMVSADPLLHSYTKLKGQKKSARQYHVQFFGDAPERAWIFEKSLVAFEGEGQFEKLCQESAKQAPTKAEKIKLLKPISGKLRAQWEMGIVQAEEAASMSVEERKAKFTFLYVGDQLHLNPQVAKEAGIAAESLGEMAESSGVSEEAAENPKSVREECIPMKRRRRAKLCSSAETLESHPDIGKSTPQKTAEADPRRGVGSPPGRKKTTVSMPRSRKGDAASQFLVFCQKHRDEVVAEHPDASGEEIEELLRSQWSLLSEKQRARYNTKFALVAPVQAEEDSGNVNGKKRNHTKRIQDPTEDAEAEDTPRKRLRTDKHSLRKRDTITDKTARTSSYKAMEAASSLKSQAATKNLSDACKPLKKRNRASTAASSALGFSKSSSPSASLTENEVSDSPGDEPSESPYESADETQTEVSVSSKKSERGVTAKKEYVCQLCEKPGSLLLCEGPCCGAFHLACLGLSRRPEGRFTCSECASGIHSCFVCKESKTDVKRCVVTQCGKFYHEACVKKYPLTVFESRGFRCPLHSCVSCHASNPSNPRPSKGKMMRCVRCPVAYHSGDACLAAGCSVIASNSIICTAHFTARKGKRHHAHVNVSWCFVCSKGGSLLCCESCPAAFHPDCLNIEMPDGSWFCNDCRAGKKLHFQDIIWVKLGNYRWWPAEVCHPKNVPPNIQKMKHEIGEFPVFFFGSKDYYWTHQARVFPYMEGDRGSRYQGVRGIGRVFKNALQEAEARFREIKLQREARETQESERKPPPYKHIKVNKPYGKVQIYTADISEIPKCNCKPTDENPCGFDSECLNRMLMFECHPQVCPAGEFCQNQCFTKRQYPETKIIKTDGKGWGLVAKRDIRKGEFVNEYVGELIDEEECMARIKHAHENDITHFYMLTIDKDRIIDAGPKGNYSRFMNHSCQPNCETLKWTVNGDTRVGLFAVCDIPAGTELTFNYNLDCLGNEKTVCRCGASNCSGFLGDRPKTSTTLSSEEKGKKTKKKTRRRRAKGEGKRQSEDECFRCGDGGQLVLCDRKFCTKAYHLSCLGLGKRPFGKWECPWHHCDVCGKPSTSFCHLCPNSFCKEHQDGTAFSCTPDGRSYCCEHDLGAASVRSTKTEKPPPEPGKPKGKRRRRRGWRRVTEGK
It counts as biochemical.

A short description of experiment [6]: blockers of HIV-1 ZM109 envelope-driven cell-cell fusion – HeLa effector, CEM target cells, luciferase, cherry-pick, dose response (AID 652058).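 Note: luciferase signal from HIV-1 Env mediated cell-cell fusion of effector and target cells.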 It counts as functional, cell-based.
Experiment [7] in a line: blockers of HIV-1 envelope-mediated cell-cell fusion – cherry-pick, dose response (AID 652057). The experiment is classed as functional, cell-based.
Experiment [8] is described as follows: off-target signal loss in HeLa-CEM21 co-culture – HeLa F-luc CTL cells, cherry-picked, counter-screen for HIV-1 Env fusion inhibitor project, dose response (AID 652040).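 Note: potency for signal decrease marking cytotoxic or nonspecific inhibition.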 It counts as functional, cell-based.
A short description of experiment [9]: viability of HCT116 lacking mutant beta-catenin – cell-based, human colon tumor, dose response (AID 1045).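 Note: HCT116 colon tumor cells with beta catenin knocked out; cells exposed to compound for 60 hours.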 The experiment is classed as functional.
Experiment [10] in a line: viability of PTEN-deleted HCT116 cells – cell-based, HCT116 PTEN knockout, dose response (AID 1047).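 Note: HCT116 colon tumor cells with PTEN knocked out; cells exposed to compound for 60 hours before readout; potency for loss of cell viability measured by luminescence.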 The experiment is classed as functional.
The next experiment deals with Genome polyprotein (dengue virus type 2, UniProt P29990). The experiment is described as follows: flavivirus cap methylation enzyme inhibition – biochemical, confirmation dose response, primary screen (AID 588689). The experiment is classed as functional.
Chain of Genome polyprotein (P29990 2492-3391 limits assumed): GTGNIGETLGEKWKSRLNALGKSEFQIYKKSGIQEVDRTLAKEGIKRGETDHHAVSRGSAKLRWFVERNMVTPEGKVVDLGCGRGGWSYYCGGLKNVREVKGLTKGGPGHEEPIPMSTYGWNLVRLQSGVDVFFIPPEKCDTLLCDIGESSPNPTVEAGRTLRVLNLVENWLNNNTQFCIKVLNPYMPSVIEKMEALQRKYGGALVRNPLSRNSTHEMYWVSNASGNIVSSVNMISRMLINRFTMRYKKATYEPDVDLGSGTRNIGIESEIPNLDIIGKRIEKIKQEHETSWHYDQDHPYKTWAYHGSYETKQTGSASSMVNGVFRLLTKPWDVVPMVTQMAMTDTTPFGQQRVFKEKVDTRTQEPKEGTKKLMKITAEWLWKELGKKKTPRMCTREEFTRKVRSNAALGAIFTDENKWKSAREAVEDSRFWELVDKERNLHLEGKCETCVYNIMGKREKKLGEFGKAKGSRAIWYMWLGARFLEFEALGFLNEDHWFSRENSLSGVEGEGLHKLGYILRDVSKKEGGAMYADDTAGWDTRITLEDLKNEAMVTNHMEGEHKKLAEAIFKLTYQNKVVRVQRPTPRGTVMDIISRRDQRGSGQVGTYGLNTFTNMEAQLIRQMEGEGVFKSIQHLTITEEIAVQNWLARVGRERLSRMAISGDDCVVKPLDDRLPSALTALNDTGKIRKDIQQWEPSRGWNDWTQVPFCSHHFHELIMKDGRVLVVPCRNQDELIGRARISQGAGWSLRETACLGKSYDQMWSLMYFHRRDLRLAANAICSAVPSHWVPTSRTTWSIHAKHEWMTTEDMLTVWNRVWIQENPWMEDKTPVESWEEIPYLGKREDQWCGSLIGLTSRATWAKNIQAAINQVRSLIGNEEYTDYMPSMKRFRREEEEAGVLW
For experiment [11], the target named is Induced myeloid leukemia cell differentiation protein Mcl-1 (Homo sapiens, UniProt Q07820). It counts as functional.
Chain of Induced myeloid leukemia cell differentiation protein Mcl-1 (Q07820 whole entry): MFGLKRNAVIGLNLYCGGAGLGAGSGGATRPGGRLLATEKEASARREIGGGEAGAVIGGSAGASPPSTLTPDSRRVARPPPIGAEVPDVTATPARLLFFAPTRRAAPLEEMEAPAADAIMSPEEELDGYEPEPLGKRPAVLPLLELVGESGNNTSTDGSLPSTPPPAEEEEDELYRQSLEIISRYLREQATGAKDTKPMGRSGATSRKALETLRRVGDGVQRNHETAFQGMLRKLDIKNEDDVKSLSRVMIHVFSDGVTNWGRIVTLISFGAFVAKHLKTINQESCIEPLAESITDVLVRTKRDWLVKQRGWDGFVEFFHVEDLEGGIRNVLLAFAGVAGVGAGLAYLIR
For a further experiment, the target named is Cytochrome P450 2D6 (Homo sapiens, UniProt P10635).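 Note: CYP2D6 member of a cytochrome P450 panel assay.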
Chain of Cytochrome P450 2D6 (P10635 whole entry): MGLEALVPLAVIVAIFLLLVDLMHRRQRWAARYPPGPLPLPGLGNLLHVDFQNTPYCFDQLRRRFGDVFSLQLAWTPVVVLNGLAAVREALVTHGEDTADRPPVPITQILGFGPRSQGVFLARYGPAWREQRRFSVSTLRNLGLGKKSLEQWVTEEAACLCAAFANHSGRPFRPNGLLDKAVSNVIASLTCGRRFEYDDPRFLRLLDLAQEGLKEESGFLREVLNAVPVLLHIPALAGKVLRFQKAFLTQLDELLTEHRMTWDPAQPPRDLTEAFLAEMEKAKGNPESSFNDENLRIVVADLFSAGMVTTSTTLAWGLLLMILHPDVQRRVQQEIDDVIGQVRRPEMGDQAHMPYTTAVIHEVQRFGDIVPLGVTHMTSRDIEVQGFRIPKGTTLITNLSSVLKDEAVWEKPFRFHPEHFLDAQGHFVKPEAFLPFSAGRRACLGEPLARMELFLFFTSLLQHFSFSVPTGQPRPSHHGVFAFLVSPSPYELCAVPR
Experiment [12] addresses FAD-linked sulfhydryl oxidase ALR (Homo sapiens, UniProt P55789). In words: ALR-catalysed DTT oxidation blockers – biochemical, H2O2 detection, luminescence, cherry-pick, dose response (AID 493248).
Experiment [13] is described as follows: NIH3T3 cell viability loss – ATP luminescence, mouse fibroblasts, counter-screen, dose response (AID 2010).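 Note: cells exposed to compound for about 90 hours before reading.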 The experiment is classed as functional, cell-based.
The test system of a further experiment is H9c2. The experiment is described as follows: cells. The note with it: Rattus norvegicus, H9c2, Myocardium. The experiment is classed as functional, cell-based.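 Note: confirmatory concentration-response retest of ultra-high-throughput screening hits for modulation of myocardial damage; cell death induced by hydrogen peroxide oxidative stress; compound pretreatment for 60 min then peroxide exposure for 2 h; potency is for protecting the cells against peroxide damage rather than for killing them.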
Experiment [14] is described as follows: Trypanosoma cruzi growth suppression in host cells – NIH3T3 host cells, beta-gal luminescence, confirmation (AID 2044).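 Note: intracellular parasites grown in NIH/3T3 mouse fibroblasts as host cells; luminescent beta-galactosidase reporter signal from transgenic T. cruzi replicating inside host cells; inhibitors lower the luminescence signal.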 The experiment is classed as functional, cell-based.
The nature of experiment [15]: blockade of melanocortin 4 receptor signaling – cell-based, plate reader, cherry pick, counter-screen for LGR2 antagonist project, dose response (AID 743444).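 Note: transfected HEK 293 cells stimulated with alpha-MSH peptide; potency of inhibitors of the alpha-MSH evoked signal.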 The experiment is classed as functional.
Experiment [16] can be described thus: blockers of bursicon-stimulated LGR2 cAMP reporter – cell-based, HEK293, CRE-luciferase reporter, cherry pick, set 2, dose response (AID 743343).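 Note: transfected cells were stimulated with diluted bursicon conditioned medium after compound addition.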 The experiment is classed as functional.
A short description of another experiment: cells. It counts as functional, cell-based. The conditions noted are these: HEK-CNG.
For a further experiment, the target named is T2, Galanin receptor type 3 (Homo sapiens, UniProt O60755).
T2 sequence (O60755 whole entry): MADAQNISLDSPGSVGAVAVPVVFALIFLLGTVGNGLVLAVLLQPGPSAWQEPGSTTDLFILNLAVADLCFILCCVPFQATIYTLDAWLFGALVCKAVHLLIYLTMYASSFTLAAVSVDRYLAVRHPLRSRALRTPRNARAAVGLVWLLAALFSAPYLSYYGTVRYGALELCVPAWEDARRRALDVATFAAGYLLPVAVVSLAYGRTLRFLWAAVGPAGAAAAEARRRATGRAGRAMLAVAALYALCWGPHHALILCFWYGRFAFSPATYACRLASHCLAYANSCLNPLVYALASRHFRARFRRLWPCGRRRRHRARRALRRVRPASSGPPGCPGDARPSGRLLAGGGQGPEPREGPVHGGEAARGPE
The experiment is described as follows: Fluorescence-based cell-based primary high throughput dose response assay to identify antagonists of the Galanin Receptor 3 (GalR3). It counts as functional.

Experiment [17] can be described thus: HIV-1 AD8 envelope cell-cell fusion blockers – cherry-pick, dose response (AID 652062).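 Note: luciferase signal from cell-cell fusion driven by HIV-1 clade B AD8 Env; potency is for inhibitors of fusion seen as a drop in luminescence.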 The experiment is classed as functional, cell-based.
In another experiment the test system is INS1. The experiment is described as follows: INS-1E survival protection against cytokine death – cell-based, luminescence, retest, dose response (AID 449756).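 Note: cell death triggered by IL-1 beta plus TNF-alpha plus IFN-gamma mixture; protective hits raise ATP signal compared with cytokine alone wells.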 The experiment is classed as functional. The note with it: Rattus norvegicus.

Chain of FAD-linked sulfhydryl oxidase ALR (P55789 whole entry): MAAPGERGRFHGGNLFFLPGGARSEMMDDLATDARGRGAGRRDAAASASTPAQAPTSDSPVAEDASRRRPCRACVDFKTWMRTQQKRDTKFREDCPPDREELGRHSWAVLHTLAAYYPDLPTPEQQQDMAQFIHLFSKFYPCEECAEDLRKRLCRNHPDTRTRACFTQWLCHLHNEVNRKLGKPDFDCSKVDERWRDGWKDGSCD

As for `O=C(Nc1cccc(C(F)(F)F)c1)c1sc(Cl)nc1C(F)(F)F`, the AC50 in experiment [1] was 9.06 µM (active); in experiment [2], > 70 µM (inactive); in [3] it was 15.8 µM (active). For the same molecule, the IC50 in [4] was > 80 µM (inactive).
As to `CCOC(=O)NCCc1c(C)nc2c(c(C)nn2C(C)(C)C)c1C`, in experiment [5], the AC50 is > 20 µM (inactive).
On to `O=C1c2cccnc2C(Nc2ccc(S(=O)(=O)N3CCCCCC3)cc2)N1Cc1ccccc1` (stereo unspecified), for which the half-maximal activity concentration (AC50) in experiment [6] is 30.5 µM (active); in [7] it was 27.2 µM (active); in experiment [8], 32.2 µM (active).
Turning to `COC(=O)c1ccc(C(=O)NC(=S)Nc2ccc3nc(SC)sc3c2)cc1`, the EC50 in experiment [9] was 5.03 µM (active); in experiment [10] it was 5.26 µM (active).
With `CCn1c(SC)nc(=O)c(C(c2ccc(OC)c(O)c2)c2c(O)n(CC)c(SC)nc2=O)c1O`, on Genome polyprotein, the IC50 is 50 µM (active).
With `COc1ccc(C(=O)Nc2ccc3[nH]c(-c4cccc(OC)c4)cc(=O)c3c2)cc1`, in experiment [4], the IC50 was > 80 µM (inactive).
The same measure, in the same setting: then `Cc1ccc(NC(=O)CSc2nc(-c3ccco3)cc(C(F)(F)F)n2)cc1C`, with > 80 µM (inactive).
As for `COc1ccc(N2CCC(CNC(=O)Nc3ccc(OC)cc3OC)C2)cc1` (stereo unspecified), the IC50 in experiment [11] was 1.14 µM (active). Also, the AC50 on Cytochrome P450 2D6 was 28.2 µM (inconclusive); in experiment [12], 17.2 µM (active).
In the case of `COc1ccc(C(=O)Nc2cc(C)nn2-c2nc3ccccc3[nH]2)c(OC)c1`, the figures for the EC50 in experiment [13] and in [14] were > 60 µM (not active) and 2.51 µM (active), respectively. The IC50 in the experiment with H9c2 was 7.52 µM (active).
`Cc1ccc(-c2ccc(/C=C3/NC(=O)NC3=O)o2)cc1[N+](=O)[O-]`: the IC50 in experiment [11] is 4.36 µM (active).
Turning to `Cc1ccc(-c2nc(-c3ccncc3)no2)c(Cl)c1`, the AC50 in experiment [15] is 12.5 µM (active); in [16] it was 10.3 µM (active).
Consider `O=C(O)c1[nH]c2ccccc2c1C(c1cccc(O)c1)c1c(C(=O)O)[nH]c2ccccc12`, for which the IC50 at Genome polyprotein was 23.2 µM (active).
In the case of `Cc1ccc(Oc2nnc(-c3ccccc3)c3ccccc23)cc1`, the EC50 was 75.9 µM (active) in experiment [9] and 75.7 µM (active) in experiment [10].
As for `CC(C)(C)c1ccc(C(=O)Nc2ccc(Oc3cccnc3)nc2)cc1`, the EC50 in the experiment “cells” is > 29.9 µM (inactive). In addition, the IC50 is 1.33 µM (active) on Galanin receptor type 3 and 50.1 µM (inactive) in experiment [4].
In the case of `CCS(=O)(=O)N1Cc2ccccc2CC1C(=O)NC(C)C12CC3CC(CC(C3)C1)C2` (stereo unspecified), the AC50 in experiment [6] is 3.91 µM (active); in [7], 3.24 µM (active); in [8], 4.99 µM (active); in experiment [17], 3.56 µM (active).
Regarding `Cc1c(-c2ccccc2)oc2c(C(=O)OCC(=O)Nc3ccc(C(N)=O)cc3)cccc2c1=O`, in the experiment with H9c2, the IC50 was > 79 µM (inactive).
`N#Cc1ccc(C(c2nnnn2CCc2ccccc2)N2CCCCCC2)cc1` (stereo unspecified): the AC50 is 12.1 µM (active) in experiment [6], 4.92 µM (active) in [7], 20.2 µM (active) in experiment [8] and 10.2 µM (active) in [17].
`Cc1ccc(O)c(CNc2cccc3cccnc23)c1`: the AC50 was > 20 µM (inactive) in experiment [5] and 13.2 µM (active) in the experiment on INS1.
Consider `COc1ccc(NC(=O)Cc2c(SC)c3ccccc3n2Cc2ccccc2)cc1`, for which the IC50 in experiment [11] was 6.18 µM (not active).
Regarding `CC(C(=O)NC1CCCC1)N(Cc1ccco1)C(=O)c1snc(C(=O)NC2CCCC2)c1N` (stereo unspecified), the IC50 in [11] is listed as 8.77 µM (not active).
For `CN1CCN(c2ccc(CNS(=O)(=O)Cc3cccc(C(F)(F)F)c3)cc2)CC1`, the EC50 in “cells” is > 29.9 µM (inactive). Besides, the IC50 at Galanin receptor type 3 is 2.08 µM (active). Besides, the AC50 in the experiment on INS1 is 4.36 µM (active).
On to `O=C(O)CCCN1C(=O)/C(=C\c2ccccc2OCc2ccccc2)SC1=S`, for which the IC50 at Genome polyprotein is 36.7 µM (active).
On to `O=C(Cn1[nH]c(=O)c2ccccc2c1=O)N1CCN(S(=O)(=O)c2ccc(Cl)cc2)CC1`, for which the IC50 with H9c2 is > 79 µM (inactive).
Regarding `COc1ccc2nc(O)c(CN(Cc3nnnn3Cc3ccccc3)CC3CCCO3)cc2c1` (stereo unspecified), the AC50 in experiment [6] was 5.31 µM (active); in [7] it was 4.18 µM (active); in experiment [8], 7.73 µM (active); in [17], 33.1 µM (active). Moreover, the IC50 with H9c2 was 16.5 µM (active).
As to `CN(C)c1ccc(C(CNC(=O)c2ccccc2Br)c2c[nH]c3ccccc23)cc1` (stereo unspecified), the IC50 in [11] was 2.82 µM (not active).
As to `O=C(COC(=O)c1[nH]nc2ccccc12)NCCc1ccc(Cl)cc1`, the EC50 in “cells” was > 29.9 µM (inactive). The IC50 at Galanin receptor type 3 was 2.87 µM (active).
As for `Cc1ccc2cc(C#N)c(N3CCN(C(=O)c4cccs4)CC3)nc2c1`, the IC50 in the experiment on H9c2 was > 79 µM (inactive).
For the molecule `COC(=O)CCCCC1=CCC2C(=O)C=C(O)C2C1` (stereo unspecified), the AC50 in experiment [5] was > 20 µM (inactive).
Consider `Oc1ccc2c(c1)nc(O)c1ccccc12`, for which the IC50 in the experiment with H9c2 was > 79 µM (inactive).
For `C[C@H]1Cn2cnc(C(=O)N3CCN(c4ccccc4)CC3)c2C(=O)N1`, the AC50 in [6] is 6.04 µM (active); in [7] it was 3.57 µM (active); in [8], 7.64 µM (active); in experiment [17], 13.4 µM (active).

These data come from ChEMBL document CHEMBL1201862, “PubChem BioAssay data set” (2004).
